Laboratory results taken from patent US6479287B1, “Method for transformation of cotton and organogenic regeneration” (Mississippi State University, priority 2000, dated 2002).

System: cotton shoot initiation (cultivar Deltapine 50 hypocotyl explants)
Test: Dose response study: effect of aminoglycosides on cotton shoot initiation from hypocotyl explants on medium GA
Assay type: in vivo
Conditions: incorporated in medium GA, results after 1 month, kanamycin tested at 0-200 mg/l, geneticin at 0-20 mg/l
Description: Hypocotyl sections were placed horizontally on shoot initiation medium (GA). Explants were maintained for 6 weeks on this medium. Shoot primordia were visible on the acropetal ends of hypocotyl sections after 2 weeks. After 6 weeks, leaves were clearly visible. Shoot initiation has been observed in 7 commercial cultivars (Deltapine 50, Stoneville 474, Deltapine 5111, Tx 121, Suregrow 125, Fibermax 819, and Paymaster 1215) and 3 breeding lines, and the response ranged from 20-73% (percentage explants capable of initiating shoots per cultivar).
GA: semi-solid GMS plus an auxin like NAA (0.1-3.0 mg/l), a cytokinin like TDZ, or BA plus kinetin (0.1-2.5 mg/l) and 1-50 mg/l silver nitrate
The effect of the aminoglycosides kanamycin and geneticin on cotton shoot initiation were investigated. Kanamycin, at concentrations of 0.0, 50, 100, 150 and 200 mg/I, and geneticin at 0.0, 5.0, 10, 15 and 20 mg/l, were incorporated in medium GA. The experiment consisted of 3 replicate plates/treatment and 4 explants/replicate plates using the cultivar Deltapine 50. […] A geneticin concentration up to 20 mg/l was not inhibitory to shoot initiation.

SMILES	concentration inhibitory to shoot initiation [mg/L]
CN[C@@H]1[C@@H](O)[C@@H](O[C@@H]2[C@@H](O)[C@H](O[C@H]3O[C@H]([C@@H](C)O)[C@@H](O)[C@H](O)[C@H]3N)[C@@H](N)C[C@H]2N)OC[C@]1(C)O [geneticin]	> 20
NC[C@H]1O[C@H](O[C@H]2[C@H](O)[C@@H](O[C@H]3O[C@H](CO)[C@@H](O)[C@H](N)[C@H]3O)[C@H](N)C[C@@H]2N)[C@H](O)[C@@H](O)[C@@H]1O [kanamycin]	50
